Test [1] deals with Staphylococcus epidermis ATCC 35984 biofilm. Nature of the test: MBIC assay (biofilm inhibition, crystal violet). Type of test: cell-based, S. epidermidis. Particulars: 48 h incubation, absorbance 540 nm. As for the experimental part: The exact weighed amount was noted and the volume of solvent to reach a 80 mM dilution calculated. Half of the volume was added first, by adding Tween 80. In a second step, the other half of the volume DMSO was added and the closed tube inverted 5-10 times and then vortexed very thoroughly for at least 30 seconds. If after this procedure unsolved material was still visible, the tube was placed in a shaker at 37° C. at 150 rpm for at least 30 minutes. […] For the MBEC assay (method 1.3) the solution needs to be diluted to a final concentration of 2 mM in 0.9% saline solution and then further diluted to 1 mM, 0.5 mM, 0.25 mM and 0.125 mM in saline. Those dilutions were added as treatment to the 96 well plates with the grown biofilm (see method 3).
Frozen aliquots of Staphylococcus epidermis ATCC 35984 and Pseudomonas aeruginosa ATCC 27853 were used to inoculate a tryptic soy agar (TSA) plate and were incubated overnight at 37° C. After incubation 3-5 well-isolated colonies with the same morphology were selected from the TSA plate and resuspended in 2 mL 0.9% saline solution with 3-6 glass beads and vortexed. The optical density of the bacterial suspension was measured at 600 nm (OD600) with a spectrophotometer (Evolution™ 201/220 UV-Visible Spectrophotometer, Thermo Fisher Scientific) and diluted to an OD600 of 0.2. The MBIC assay was performed in a 96-microtiter plate. 50 μL of TSB was added into columns 2-11, and 100 μL to column 12 for sterility control. 100 μL of the 8 mM test compound solution (method 1) was added to column 1. A two-fold dilution series of the solution in TSB was achieved by resuspending 50 μL of the 8 mM solution from column 1 in column 2. This step was repeated until column 10. The respective concentration of Tween 80 and DMSO in column 1 is at 2.5%, which is two-fold diluted throughout the plate. 50 μL of the bacterial suspension was added to column 1-11. The microtiter plates were sealed with adhesive polyethylene film for sealing microplates (Diversified Biotech) and incubated for 48 h at 37° C. After incubation the supernatant is carefully removed and the well with the biofilm washed for one time with 100 μL 0.9% saline solution. 100 μL 0.1 M HCl was added and incubated for 1 h at room temperature to fix the biofilm. After incubation the HCl was removed and 100 μL crystal violet (0.1% v/v in water) was added and incubated for 30 min at room temperature. The unbound crystal violet was removed and the wells washed one time with 100 μL demineralized water. 100 μL 30% acetic acid was added and incubated for 1 h at 37° C. and 150 rpm. The solution was resuspended and transferred to a flat-bottom 96-well plate and the absorbance measured at 540 nm with the spectrophotometer. This assay was repeated two times in two independent experiments.

The subject of test [2] is Staphylococcus epidermis ATCC 35984. Nature of the test: MIC assay (planktonic growth inhibition, OD600). Type of test: cell-based, S. epidermidis. The settings on record: 24 h at 37° C. In outline:
(§1)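 Broth microdilution in MHB-II, two-fold series from 8 mM stock solution (Tween 80/DMSO co-diluted, 2.5% in top well). Inoculum from overnight TSA colonies adjusted to OD600 0.0008 (~10^6 CFU/mL); 24 h at 37° C., growth read as OD600; three independent experiments.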

The test system of test [3] is Staphylococcus epidermis ATCC 35984 biofilm. Nature of the test: MBEC assay (biofilm eradication, CFU log reduction). Type of test: cell-based, S. epidermidis. The settings on record: 48 h grown biofilm, 20 h treatment, CFU log reduction vs untreated. The method in brief: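 Biofilms were grown 48 h static at 37 °C in TSB from inocula at OD600 0.2, then treated 20 h at 37 °C with 1, 0.5, 0.25 or 0.125 mM compound in saline (Tween 80 and DMSO each 0.63–0.08%), four replicates per condition. Resuspended biofilm was serially diluted and plated on TSA for 24 h; log CFU reduction versus untreated, with ≥1 counted as significant, in two independent experiments.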

For test [4], the system named is Pseudomonas aeruginosa ATCC 27853. The test can be described thus: MIC assay (planktonic growth inhibition, OD600). Particulars: 24 h at 37° C. It counts as cell-based, P. aeruginosa. The method in brief: as §1
Where [5] appears, read: minimal concentration reducing final OD600 by 50%.
[6] abbreviates: minimal concentration reducing final OD600 by 90%.

The results in this text go back to US20240374535A1, “COMPOSITIONS AND METHODS FOR TREATING BIOFILM DISORDERS AND INFECTIONS” (AHV International B.V., priority 2021, published 2024).

For `CCCS[S+]([O-])CCC` (stereo not drawn) [Di-n-propyl thiosulfinate, S-propyl propane-1-sulfinothioate], in test [1], the “S. epidermidis MBIC90” value is listed as greater than 4 mM. In addition, the IC50 in test [2] (minimal concentration reducing final OD600 by 50%, read-out: S. epidermidis MIC50) was determined as 250 µM; in test [4] (Pseudomonas aeruginosa, ATCC27853, minimal concentration reducing final OD600 by 50%, read-out: P. aeruginosa MIC50), 1000 µM. Moreover, the IC90 came out at 500 µM in test [2] (minimal concentration reducing final OD600 by 90%, read-out: S. epidermidis MIC90) and 2000 µM in test [4] (Pseudomonas aeruginosa, ATCC27853, minimal concentration reducing final OD600 by 90%, read-out: P. aeruginosa MIC90). In test [3] (read-out: S. epidermidis MBEC mM with log reduction ≥1), the minimal effective concentration worked out at 2 mM.
Turning to `CSS(C)(=O)=O` [Di-methyl thiosulfonate, methyl methane thiosulfonate], the “S. epidermidis MBIC90” value in test [1] was greater than 4 mM. Further, in test [2] (setting [5]), the “S. epidermidis MIC50” value turned out to be 250 µM. Besides, in test [2] (setting [6]), the “S. epidermidis MIC90” value was found to be 250 µM. Moreover, the “S. epidermidis MBEC mM with log reduction ≥1” value in test [3] was found to be 2 mM. In test [4] (setting [5]), the “P. aeruginosa MIC50” value was 250 µM. Moreover, in test [4] (setting [6]), the “P. aeruginosa MIC90” value is 500 µM.
